Measured values reported in US8101550B2, “Anthranilic acid diamide derivative with hetero-aromatic and hetero-cyclic substituents” (Bayer Cropscience AG, priority 2006, dated 2012).
Like-named read-outs stand apart in the source and are kept apart here.

Experiment: log P determination by HPLC on reverse-phase column (EEC Directive 79/831 Annex V.A8)
Type: physicochemical
Procedure, shortened: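 Reverse-phase C18 HPLC at 43 °C, following EEC Directive 79/831 Annex V.A8. Acidic LC-MS used pH 2.7 eluents (0.1% aqueous formic acid and acetonitrile with 0.1% formic acid) on a 10–95% acetonitrile linear gradient. Log P was interpolated linearly from retention times against unbranched C3–C16 alkan-2-ones of known log P.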

[1] = HPLC, reverse-phase column (C 18), 43° C., acidic range pH 2.7

Compound	logP (HPLC on reverse-phase column)	logP	also measured
Cc1cc(Cl)cc(C(N)=O)c1NC(=O)c1cc(Cn2nnc(-c3cc(C(F)(F)F)cc(C(F)(F)F)c3)n2)nn1-c1ncccc1Cl [I-1-114]	4.03		
CCNC(=O)c1cc(I)cc(C)c1NC(=O)c1cc(Cn2ccc(C(F)(F)F)n2)nn1-c1ncccc1Cl [I-1-250]		3.28	
Cc1cc(Br)cc(C(=O)NC(C)C[S+](C)[O-])c1NC(=O)c1cc(Cn2cc(Br)c(C(F)(F)F)n2)nn1-c1ncccc1Cl (centres unmarked) [I-1-113]	2.97		
CNC(=O)c1cc(Cl)cc(C)c1NC(=O)c1cc(Cn2cc(I)c(I)n2)nn1-c1ncccc1Cl [I-1-110]	3.13		
CNC(=O)c1cc(Cl)cc(C)c1NC(=O)c1cc(Cn2nc(C(F)(F)F)n(-c3ccccc3)c2=O)nn1-c1ncccc1Cl [I-1-118]	3.10		
Cc1cc(Cl)cc(C(=O)NC2CC2)c1NC(=O)c1cc(Cn2nc(C(F)F)c([N+](=O)[O-])c2C(F)F)nn1-c1ncccc1Cl [I-1-260]		3.12	
Cc1cc(Br)cc(C(=O)NC(C)(C)C[S+](C)[O-])c1NC(=O)c1cc(Cn2nc(C(F)(F)F)nc2C(F)(F)F)nn1-c1ncccc1Cl (centres unmarked) [I-1-144]	3.38		
Cc1cc(Br)cc(C(=O)NC(C)CS(C)(=O)=O)c1NC(=O)c1cc(Cn2cc(Br)c(C(F)(F)F)n2)nn1-c1ncccc1Cl (centres unmarked) [I-1-101]	3.32		
CNC(=O)c1cc(Cl)cc(Cl)c1NC(=O)c1cc(Cn2cc(Cl)c(C(F)(F)C(F)(F)F)n2)nn1-c1ncccc1Cl [I-1-308]		3.18	
CNC(=O)c1cc(C#N)cc(C)c1NC(=O)c1cc(Cn2cc(C(F)(F)C(F)(F)F)c(C(F)(F)C(F)(F)F)n2)nn1-c1ncccc1Cl [I-1-170]		4.08	
Cc1cc(Cl)cc(C(=O)NC(C)C)c1NC(=O)c1cc(Cn2cc(C(F)(F)C(F)(F)F)cn2)nn1-c1ncccc1Cl [I-1-65]	3.67		
CC(C)NC(=O)c1cc(Cl)cc(Cl)c1NC(=O)c1cc(Cn2nc(C(F)(F)F)nc2C(F)(F)F)nn1C(C)C [I-2-2]			logP [1]: 3.85
CNC(=O)c1cc(Cl)cc(C)c1NC(=O)c1cc(Cn2nc(C(F)F)c([N+](=O)[O-])c2C(F)F)nn1-c1ncccc1Cl [I-1-257]		2.92	
Cc1cc(C#N)cc(C(=O)NC2CC2)c1NC(=O)c1cc(Cn2nc(C(F)(F)F)nc2C(F)(F)F)nn1-c1ncccc1Cl [I-1-178]		3.31	
Cc1cc(C#N)cc(C(=O)NC2CC2)c1NC(=O)c1cc(Cn2cnc(C(F)(F)C(F)(F)F)n2)nn1-c1ncccc1Cl [I-1-353]		2.08	
Cc1cc(C#N)cc(C(=O)NC(C)C[S+](C)[O-])c1NC(=O)c1cc(Cn2cc(Cl)c(C(F)(F)C(F)(F)F)n2)nn1-c1ncccc1Cl (centres unmarked) [I-1-211]		3.02	
Cc1cc(C#N)cc(C(N)=O)c1NC(=O)c1cc(Cn2ccc(C(F)(F)F)n2)nn1-c1ncccc1Cl [I-1-184]		2.42	
Cc1cc(C#N)cc(C(=O)NC(C)C)c1NC(=O)c1cc(Cn2nc(C(F)(F)F)cc2C(F)(F)F)nn1-c1ncccc1Cl [I-1-187]		3.80	
Cc1cc(C#N)cc(C(=O)NC2CC2)c1NC(=O)c1cc(Cn2cc(C(F)(F)C(F)(F)F)c(C(F)(F)C(F)(F)F)n2)nn1-c1ncccc1Cl [I-1-191]		4.29	
Cc1cc(Cl)cc(C(N)=O)c1NC(=O)c1cc(Cn2cnc(C(F)(F)C(F)(F)F)n2)nn1-c1ncccc1Cl [I-1-343]		2.02	
Cc1cc(Cl)cc(C(=O)NC(C)C)c1NC(=O)c1cc(Cn2nnn(CC(F)(F)F)c2=O)nn1-c1ncccc1Cl [I-1-123]	2.92		

Compound	logP (HPLC on reverse-phase column)	logP	also measured
Cc1cc(Cl)cc(C(=O)NC(CN2CCCCC2)C2CC2)c1NC(=O)c1cc(Cn2cc(Cl)c(C(F)(F)C(F)(F)F)n2)nn1-c1ncccc1Cl (centres unmarked) [I-1-214]		2.77	
Cc1cc(Cl)cc(C(=O)NC(C)C)c1NC(=O)c1cc(Cn2nnn(-c3c(C)cccc3Cl)c2=O)nn1-c1ncccc1Cl [I-1-51]	3.52		
Cc1cc(C#N)cc(C(=O)NC(C)C)c1NC(=O)c1cc(Cn2cc(Cl)c(C(F)(F)C(F)(F)F)n2)nn1-c1ncccc1Cl [I-1-172]		3.87	
Cc1cc(Cl)cc(C(=O)NC(C)CS(C)(=O)=O)c1NC(=O)c1cc(Cn2cc(Cl)c(C(F)(F)C(F)(F)F)n2)nn1-c1ncccc1Cl (centres unmarked) [I-1-213]		3.60	
Cc1cc(C#N)cc(C(=O)NCC#N)c1NC(=O)c1cc(Cn2cc(Cl)c(C(F)(F)C(F)(F)F)n2)nn1-c1ncccc1Cl [I-1-175]		3.40	
Cc1cc(Cl)cc(C(=O)NC2C3CCCCC32)c1NC(=O)c1cc(Cn2cc(Cl)c(C(F)(F)C(F)(F)F)n2)nn1-c1ncccc1Cl (centres unmarked) [I-1-205]		4.88	
Cc1cc(Br)cc(C(N)=O)c1NC(=O)c1cc(Cn2cc(Br)c(C(F)(F)F)n2)nn1-c1ncccc1Cl [I-1-100]	3.24		
CNC(=O)c1cc(Cl)cc(Cl)c1NC(=O)c1cc(Cc2ccoc2)nn1-c1ncccc1Cl [I-1-306]		2.18	
Cc1cc(Br)cc(C(=O)NC(C)(C)CS(C)(=O)=O)c1NC(=O)c1cc(Cn2cc(Br)c(C(F)(F)F)n2)nn1-c1ncccc1Cl [I-1-121]	3.57		
Cc1cc(Br)cc(C(=O)N[C@@H](C)CS(C)(=O)=O)c1NC(=O)c1cc(Cn2nc(C(F)(F)F)nc2C(F)(F)F)nn1-c1ncccc1Cl [I-1-146]	3.36		
Cc1cc(I)cc(C(=O)NC2CCCCCCCCCCC2)c1NC(=O)c1cc(Cn2nc(C(F)(F)F)nc2C(F)(F)F)nn1-c1ncccc1Cl [I-1-280]		6.56	
Cc1cc(Cl)cc(C(=O)NC(C)C)c1NC(=O)c1cc(Cn2cnc(C(C)(C)C)n2)nn1-c1ncccc1Cl [I-1-161]		2.87	
Cc1cc(I)cc(C(=O)NC(C)(C)C)c1NC(=O)c1cc(Cn2nc(C(F)(F)F)nc2C(F)(F)F)nn1-c1ncccc1Cl [I-1-285]		4.23	
Cc1cc(I)cc(C(=O)NC(C2CC2)C2CC2)c1NC(=O)c1cc(Cn2cc(Cl)c(C(F)(F)C(F)(F)F)n2)nn1-c1ncccc1Cl [I-1-288]		4.79	
Cc1cc(Cl)cc(C(=O)NC2CC2)c1NC(=O)c1cc(Cn2cnc(C(F)(F)C(F)(F)F)n2)nn1-c1ncccc1Cl [I-1-345]		2.42	
Cc1cc(Cl)cc(C(=O)NC(C)C)c1NC(=O)c1cc(Cn2nnc(-c3cc(Cl)nc(Cl)c3)n2)nn1-c1ncccc1Cl [I-1-156]		4.17	
Cc1cc(I)cc(C(=O)NC2CC2)c1NC(=O)c1cc(Cn2nc(C(F)(F)F)cc2C(F)(F)F)nn1-c1ncc(C(F)(F)F)cc1Cl [I-2-10]			logP [1]: 4.73
CC(C)NC(=O)c1cc(Cl)cc(Cl)c1NC(=O)c1cc(Cn2cnc(C(F)(F)C(F)(F)F)n2)nn1-c1ncccc1Cl [I-1-340]		2.55	
CC(C)NC(=O)c1cc(Cl)cc(Cl)c1NC(=O)c1cc(Cn2cc(Cl)c(C(F)(F)C(F)(F)F)n2)nn1-c1ncccc1Cl [I-1-309]		3.53	
Cc1cc(Cl)cc(C(=O)NCC#N)c1NC(=O)c1cc(Cn2cnc(C(F)(F)C(F)(F)F)n2)nn1-c1ncccc1Cl [I-1-332]		2.59	
Cc1cc(C#N)cc(C(=O)NCC#N)c1NC(=O)c1cc(Cn2cc(C(F)(F)C(F)(F)F)c(C(F)(F)C(F)(F)F)n2)nn1-c1ncccc1Cl [I-1-193]		4.04	

Compound	logP (HPLC on reverse-phase column)	logP	also measured
CNC(=O)c1cc(C#N)cc(C)c1NC(=O)c1cc(Cn2cnc(C(F)(F)C(F)(F)F)n2)nn1-c1ncccc1Cl [I-1-352]		1.91	
CNC(=O)c1cc(Cl)cc(C)c1NC(=O)c1cc(Cn2cc(I)c(C(F)(F)F)n2)nn1-c1ncccc1Cl [I-1-62]	3.41		
Cc1cc(I)cc(C(=O)NC2CCCC2)c1NC(=O)c1cc(Cn2nc(C(F)(F)F)nc2C(F)(F)F)nn1-c1ncccc1Cl [I-1-279]		4.47	
CNC(=O)c1cc(Cl)cc(Cl)c1NC(=O)c1cc(Cc2cccnc2)nn1-c1ncccc1Cl [I-1-316]		1.03	
CSC[C@H](C)NC(=O)c1cc(Cl)cc(C)c1NC(=O)c1cc(Cn2cc(Br)c(C(F)(F)F)n2)nn1-c1ncccc1Cl [I-1-130]	4.11		
Cc1cc(I)cc(C(=O)NC2CC2)c1NC(=O)c1cc(Cn2nc(C(F)(F)F)nc2C(F)(F)F)nn1-c1ncccc1Cl [I-1-252]		3.81	
Cc1cc(I)cc(C(=O)NCC#N)c1NC(=O)c1cc(Cn2nc(C(F)(F)F)cc2C(F)(F)F)nn1-c1ncccc1Cl [I-1-241]		3.73	
Cc1cc(I)cc(C(N)=O)c1NC(=O)c1cc(Cn2nc(C(F)(F)F)cc2C(F)(F)F)nn1-c1ncccc1Cl [I-1-234]		3.56	
CSCC(C)(C)NC(=O)c1cc(Cl)cc(C)c1NC(=O)c1cc(Cn2cc(Br)c(C(F)(F)F)n2)nn1-c1ncccc1Cl [I-1-131]	4.48		
Cc1cc(Cl)cc(C(=O)NC(C)C2CC2)c1NC(=O)c1cc(Cn2nc(C(F)(F)F)cc2C(F)(F)F)nn1-c1ncc(C(F)(F)F)cc1Cl (centres unmarked) [I-2-15]			logP [1]: 4.04
CNC(=O)c1cc(Cl)cc(Cl)c1NC(=O)c1cc(Cn2nc(C(F)(F)F)nc2C(F)(F)F)nn1C1CCOC1 (centres unmarked) [I-2-6]			logP [1]: 2.99
Cc1cc(Cl)cc(C(=O)NC(C)C)c1NC(=O)c1cc(Cn2cnc(C(F)(F)C(F)(F)F)n2)nn1-c1ncccc1Cl [I-1-323]		3.01	
Cc1cc(F)cc(C(=O)NC(C)C)c1NC(=O)c1cc(Cn2nc(C(F)(F)F)cc2C(F)(F)F)nn1-c1ncccc1Cl [I-1-225]		3.77	
Cc1cc(Br)cc(C(N)=O)c1NC(=O)c1cc(Cn2ccc(C(F)(F)F)n2)nn1-c1ncccc1Cl [I-1-83]	2.75		
Cc1cc(Br)cc(C(N)=O)c1NC(=O)c1cc(Cn2nc(C(F)(F)F)cc2C(F)(F)F)nn1-c1ncccc1Cl [I-1-61]	3.53		
CSC[C@H](C)NC(=O)c1cc(Cl)cc(C)c1NC(=O)c1cc(Cn2nnc(-c3ccc(Cl)nc3)n2)nn1-c1ncccc1Cl [I-1-158]		3.67	
Cc1cc(Cl)cc(C(=O)NC(C)C)c1NC(=O)c1cc(Cn2ccc(Cl)n2)nn1-c1ncccc1Cl [I-1-103]	2.96		
CNC(=O)c1cc(Cl)cc(Cl)c1NC(=O)c1cc(Cn2nc(C(F)(F)F)nc2C(F)(F)F)nn1-c1ncccc1Cl [I-1-290]		3.40	
N#CCNC(=O)c1cc(Cl)cc(Cl)c1NC(=O)c1cc(Cn2nc(C(F)(F)F)nc2C(F)(F)F)nn1-c1ncccc1Cl [I-1-292]		2.83	
Cc1cc(Br)cc(C(=O)N[C@@H](C)C[S+](C)[O-])c1NC(=O)c1cc(Cn2nc(C(F)(F)F)nc2C(F)(F)F)nn1-c1ncccc1Cl (some centres unmarked) [I-1-140]	3.05		
